This note sets out measurements from patent US20230312556A1, “ARYLAMIDE COMPOUND, PHARMACEUTICAL COMPOSITION COMPRISING SAME, AND PREPARATION METHOD THEREFOR AND USE THEREOF” (SICHUAN KELUN-BIOTECH BIOPHARMACEUTICAL CO., LTD., priority 2020, published 2023).

Usually IC50 stands for the concentration that gives 50% inhibition.

Experiment [1] has as its system human melanoma cell A375 (BRAF-V600E mutation). The experiment is described as follows: Cancer cell proliferation inhibition assay, A375. It is filed as cell-based. The conditions noted are these: A-375, 72 h incubation, Cell Titer Glo. The source says:
(§1) The inhibitory effects of the compounds of the present invention on cancer cell proliferation were further evaluated by testing the effects of the compounds of the present invention on the growth of cancer cells.
(§2) In this example, human melanoma cell A375 (BRAF-V600E mutation, purchased from the Cell Bank of the Chinese Academy of Sciences) and human hepatocellular carcinoma cell HepG2 (NRAS-Q61K mutation, purchased from ATCC, USA) were employed.
(§3) In this example, the test compounds at various concentrations (100000 nM, 30000 nM, 10000 nM, 3000 nM, 1000 nM, 300 nM, 100 nM, 30 nM, 10 nM) were added to the above cells, and the incubation was performed for 72 h. The inhibitory activity of the compounds was tested by measuring ATP in living cells using the Cell Titer Glo Kit (Promega).
(§4) The IC50 values of the compounds of the present invention for each tested cell were determined, and the test results are as follows: […]

In experiment [2] the target is wild-type BRAF enzyme (Homo sapiens (Human), UniProt P15056). The experiment is described as follows: RAF inhibition assay (TB-PMAP2K1 kit), wild-type BRAF. The experiment is classed as biochemical. Particulars: FLUORESCEIN-MAP2K1 substrate, 60 min reaction. The method, then:
Assay protocol: the inhibitory effects of the compounds of the present invention on the wild-type BRAF enzyme, mutant CRAF enzyme (RAF1 Y340D and Y341D) and mutant BRAF enzyme (BRAF-V600E) activity were determined according to the instructions of the TB-PMAP2K1 (PSER217/221) kit (ThermoFisher). Different RAF enzymes and substrates (FLUORESCEIN-MAP2K1) were pre-incubated with test compounds at various concentrations at room temperature for 15 min, and then the adenosine triphosphate (ATP) was added to initiate the reaction. After incubation at room temperature for 60 min, EDTA and Tb-labeled anti-pMAP2K1 [pS217/221] antibody solutions were added, and incubation was performed at room temperature for 60 min before the detection of the fluorescence values of the compounds in each group. With the vehicle group (DMSO) as the negative control and the buffer group (without RAF enzyme) as the blank control, the relative inhibitory activity percentage (i.e., the inhibition rate) of a compound at different concentrations was calculated according to the following formula:
Relative inhibitory activity percentage=1−(Compound group at various concentrations−blank control)/(negative control−blank control)*100%
The relative inhibitory activity percentages of the compounds at different concentrations were plotted against the compound concentrations, the curve was fitted according to a four-parameter model, and the IC50 value was calculated according to the following formula:
y=min+(max−min)/(1+(x/IC50)^(−Hillslope))
wherein y is the relative inhibitory activity percentage, max and min are respectively the maximum and minimum values of the fitted curve, x is the logarithm concentration of the compound, and Hillslope is the slope of the curve.

Experiment [3] concerns human hepatocellular carcinoma cell HepG2 (NRAS-Q61K mutation). The experiment is described as follows: Cancer cell proliferation inhibition assay, HepG2. The conditions noted are these: 72 h incubation, Cell Titer Glo. It is filed as cell-based.
Description: as §1, §2, §3, §4

Sequence of wild-type BRAF enzyme (P15056 whole entry): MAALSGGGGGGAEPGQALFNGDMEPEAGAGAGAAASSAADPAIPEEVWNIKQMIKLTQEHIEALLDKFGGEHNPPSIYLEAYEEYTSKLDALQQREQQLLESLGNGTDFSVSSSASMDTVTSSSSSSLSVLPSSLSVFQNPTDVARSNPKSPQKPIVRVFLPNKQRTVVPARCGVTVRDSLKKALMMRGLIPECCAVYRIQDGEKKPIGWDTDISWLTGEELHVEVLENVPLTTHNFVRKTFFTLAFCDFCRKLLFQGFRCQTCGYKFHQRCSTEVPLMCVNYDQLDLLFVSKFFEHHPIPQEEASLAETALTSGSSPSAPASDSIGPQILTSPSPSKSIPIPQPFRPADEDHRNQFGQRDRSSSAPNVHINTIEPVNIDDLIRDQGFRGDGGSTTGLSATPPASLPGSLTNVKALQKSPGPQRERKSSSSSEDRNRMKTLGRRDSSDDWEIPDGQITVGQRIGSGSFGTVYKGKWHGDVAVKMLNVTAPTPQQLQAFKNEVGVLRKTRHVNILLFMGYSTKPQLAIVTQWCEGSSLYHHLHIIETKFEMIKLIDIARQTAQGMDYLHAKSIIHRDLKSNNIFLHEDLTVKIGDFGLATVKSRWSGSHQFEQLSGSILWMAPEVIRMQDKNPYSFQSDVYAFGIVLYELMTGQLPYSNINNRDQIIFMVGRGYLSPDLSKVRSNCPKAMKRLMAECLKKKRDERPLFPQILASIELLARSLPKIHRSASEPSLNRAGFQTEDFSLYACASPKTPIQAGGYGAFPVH

On to `Cc1ccc2c(C(O)c3cccc(C(F)(F)F)c3)nccc2c1NC(=O)c1csc2c(N)ncnc12` (stereo not shown) [Compound 23, 4-amino-N-(1-(hydroxy(3-(trifluoromethyl)phenyl)methyl)-6-methylisoquinolin-5-yl)thieno[3,2-d]pyrimidine-7-carboxamide], for which the IC50 in experiment [1] came to 64.7 ± 4.22 nM; in experiment [2] it was 51.4 ± 1.64 nM.
In the case of `Cc1ccc2c(Nc3cccc(Cl)c3F)nccc2c1NC(=O)c1cc(F)cc2c(N)ncnc12` [Compound 46, 4-amino-N-(1-((3-chloro-2-fluorophenyl)amino)-6-methylisoquinolin-5-yl)-6-fluoroquinazoline-8-carboxamide], the IC50 in experiment [3] was 74.4 ± 7.91 nM; in experiment [1], 89.3 ± 5.2 nM; in experiment [2], 79.3 ± 19.5 nM.
The like results for `Cc1ccc2c(Nc3cccc(Cl)c3F)nccc2c1NC(=O)c1ccc(F)c2c(N)ncnc12` [Compound 93, 4-amino-N-(1-((3-chloro-2-fluorophenyl)amino)-6-methylisoquinolin-5-yl)-5-fluoroquinazoline-8-carboxamide] were, in that order, 62.9 ± 11.3 nM, 61.7 ± 3.6 nM and 13.5 ± 1.02 nM.
As to `Cc1ccc2c(Nc3ccc(F)c(Cl)c3)nccc2c1NC(=O)c1cnc2c(N)ncnn12` [Compound 58, 4-amino-N-(1-((3-chloro-4-fluorophenyl)amino)-6-methylisoquinolin-5-yl)imidazo[2,1-f][1,2,4]triazine-7-carboxamide], the values for the IC50 in experiment [3] and in experiment [2] were 37.6 ± 3.34 nM and 10.8 ± 1.09 nM, respectively.
In the case of `Cc1ccc2c(Nc3ccc(F)cc3F)nccc2c1NC(=O)c1cccc2c(N)ncnc12` [Compound 67, 4-amino-N-(1-((2,4-difluorophenyl)amino)-6-methylisoquinolin-5-yl)quinazoline-8-carboxamide], the IC50 worked out at 56.7 ± 9.3 nM in experiment [3], 184 ± 16.9 nM in experiment [1] and 13.2 ± 1.67 nM in experiment [2].
Taken in the same sequence, the figures for `Cc1ccc2c(Nc3c(F)cc(F)cc3F)nccc2c1NC(=O)c1cccc2c(N)ncnc12` [Compound 94, 4-amino-N-(6-methyl-1-((2,4,6-trifluorophenyl)amino)isoquinolin-5-yl)quinazoline-8-carboxamide] were 47.4 ± 6.5 nM, 58.8 ± 5.6 nM and 10.3 ± 1 nM.
Taken in the same sequence, the figures for `Cc1ccc2c(Nc3cccc(Cl)c3)nccc2c1NC(=O)c1cccc2c(N)ncnc12` [Compound 38, 4-amino-N-(1-((3-chlorophenyl)amino)-6-methylisoquinolin-5-yl)quinazoline-8-carboxamide] were 38.1 ± 3.6 nM, 96.7 ± 14.3 nM and 23.2 ± 2.67 nM.
On to `Cc1ccc2c(Nc3cc(F)c(F)cc3F)nccc2c1NC(=O)c1cccc2c(N)ncnc12` [Compound 90, 4-amino-N-(6-methyl-1-((2,4,5-trifluorophenyl)amino)isoquinolin-5-yl)quinazoline-8-carboxamide], for which the figures for the 50% inhibitory concentration (IC50) in experiment [3], in experiment [1] and in experiment [2] were 118 ± 12.6 nM, 74 ± 6.3 nM and 26.5 ± 2.18 nM, respectively.
In turn, `Cc1ccc2c(C(=O)c3cccc(C(F)(F)F)c3)nccc2c1NC(=O)c1csc2c(N)ncnc12` [Compound 22, 4-amino-N-(6-methyl-1-(3-(trifluoromethyl)benzoyl)isoquinolin-5-yl)thieno[3,2-d]pyrimidine-7-carboxamide] registered an IC50 in experiment [2] of 50.2 ± 8.47 nM.
As for `Cc1ccc2c(C(O)c3ccc(Cl)cc3F)nccc2c1NC(=O)c1csc2c(N)ncnc12` (stereo not shown) [Compound 28, 4-amino-N-(1-((4-chloro-2-fluorophenyl)(hydroxy)methyl)-6-methylisoquinolin-5-yl)thieno[3,2-d]pyrimidine-7-carboxamide], the IC50 in experiment [1] came to 98.8 ± 10.2 nM; in experiment [2], 9.43 ± 0.76 nM.
`Cc1ccc2c(C(C)Oc3ccccc3)nccc2c1NC(=O)c1csc2c(N)ncnc12` (stereo not shown) [Compound 35, 4-amino-N-(6-methyl-1-(1-phenoxyethyl)isoquinolin-5-yl)thieno[3,2-d]pyrimidine-7-carboxamide]: in experiment [2], inhibition was half-maximal at 125 ± 3.5 nM (IC50).
Regarding `CCOc1ccc(Nc2nccc3c(NC(=O)c4cccc5c(N)ncnc45)c(C)ccc23)c(F)c1` [Compound 74, 4-amino-N-(1-((4-ethoxy-2-fluorophenyl)amino)-6-methylisoquinolin-5-yl)quinazoline-8-carboxamide], the half-maximal inhibitory concentration (IC50) came out at 62.3 ± 9.2 nM in experiment [3] and 62.7 ± 12.5 nM in experiment [1].
The like results for `Cc1ccc2c(Nc3ccc(N(C)C)nc3)nccc2c1NC(=O)c1cccc2c(N)ncnc12` [Compound 59, 4-amino-N-(1-((6-(dimethylamino)pyridin-3-yl)amino)-6-methylisoquinolin-5-yl)quinazoline-8-carboxamide] were, in that order, 211 ± 16.6 nM and 85 ± 5.2 nM.
For the compound `Cc1ccc2c(Nc3ccnc(C(F)(F)F)c3)nccc2c1NC(=O)c1cccc2c(N)ncnc12` [Compound 71, 4-amino-N-(6-methyl-1-((2-(trifluoromethyl)pyridin-4-yl)amino)isoquinolin-5-yl)quinazoline-8-carboxamide], the concentration for half-maximal inhibition (IC50) in experiment [3] came to 53 ± 9.7 nM; in experiment [1], 170 ± 13.8 nM.
`COc1ccc(Nc2nccc3c(NC(=O)c4cccc5c(N)ncnc45)c(C)ccc23)cc1OC` [Compound 68, 4-amino-N-(1-((3,4-dimethoxyphenyl)amino)-6-methylisoquinolin-5-yl)quinazoline-8-carboxamide]: the IC50 in experiment [3] was determined as 109 ± 12.2 nM; in experiment [1], 104 ± 20.6 nM.
For `Cc1ccc2c(Nc3cccc(Cl)c3F)nccc2c1NC(=O)c1cc(O)cc2c(N)ncnc12` [Compound 76, 4-amino-N-(1-((3-chloro-2-fluorophenyl)amino)-6-methylisoquinolin-5-yl)-6-hydroxyquinazoline-8-carboxamide], the IC50 in experiment [3] stood at 147 ± 19.2 nM; in experiment [1] it was 202 ± 5.74 nM.
For `Cc1ccc2c(Nc3cccc(Cl)c3F)nccc2c1NC(=O)c1cc(N2CCOCC2)cc2c(N)ncnc12` [Compound 53, 4-amino-N-(1-((3-chloro-2-fluorophenyl)amino)-6-methylisoquinolin-5-yl)-6-morpholinoquinazoline-8-carboxamide], the concentration for half-maximal inhibition (IC50) in experiment [3] amounted to 113 ± 3.35 nM; in experiment [1], 77.7 ± 2.3 nM.
Turning to `Cc1ccc2c(Nc3ccccc3F)nccc2c1NC(=O)c1cccc2c(N)ncnc12` [Compound 39, 4-amino-N-(1-((2-fluorophenyl)amino)-6-methylisoquinolin-5-yl)quinazoline-8-carboxamide], the half-maximal inhibitory concentration (IC50) in experiment [3] came to 27.1 ± 2.5 nM; in experiment [2] it was 8.44 ± 2.46 nM.
Consider `Cc1ccc2c(Nc3cc(Br)ccc3F)nccc2c1NC(=O)c1cccc2c(N)ncnc12` [Compound 91, 4-amino-N-(1-((5-bromo-2-fluorophenyl)amino)-6-methylisoquinolin-5-yl)quinazoline-8-carboxamide], for which the IC50 in experiment [3] was determined as 140 ± 17 nM; in experiment [1], 87.1 ± 10.4 nM.
As for `COc1ccc(Nc2nccc3c(NC(=O)c4cccc5c(N)ncnc45)c(C)ccc23)cn1` [Compound 75, 4-amino-N-(1-((6-methoxypyridin-3-yl)amino)-6-methylisoquinolin-5-yl)quinazoline-8-carboxamide], the IC50 in experiment [3] amounted to 34 ± 7.6 nM; in experiment [1], 67.7 ± 15.1 nM.
Consider `Cc1ccc2c(Nc3cccc(Cl)c3F)nccc2c1NC(=O)c1cnc2c(N)ncnn12` [Compound 30, 4-amino-N-(1-((3-chloro-2-fluorophenyl)amino)-6-methylisoquinolin-5-yl)imidazo[2,1-f][1,2,4]triazine-7-carboxamide], for which the IC50 came to 13.3 ± 0.9 nM in experiment [3] and 89.3 ± 11.3 nM in experiment [1].
For the compound `Cc1ccc2c(Nc3ccc4c(c3)CN(C)CC4)nccc2c1NC(=O)c1cccc2c(N)ncnc12` [Compound 82, 4-amino-N-(6-methyl-1-((2-methyl-1,2,3,4-tetrahydroisoquinolin-7-yl)amino)isoquinolin-5-yl)quinazoline-8-carboxamide], the IC50 in experiment [3] is 245 ± 27.3 nM; in experiment [1] it was 141 ± 44.1 nM.
Take `Cc1ccc2c(Nc3cc(Cl)ccc3F)nccc2c1NC(=O)c1cc(F)cc2c(N)ncnc12` [Compound 84, 4-amino-N-(1-((5-chloro-2-fluorophenyl)amino)-6-methylisoquinolin-5-yl)-6-fluoroquinazoline-8-carboxamide]: the half-inhibitory concentration (IC50) in experiment [3] came to 67.2 ± 9.93 nM; in experiment [1] it was 165 ± 6.5 nM.
In the case of `Cc1ccc(Nc2nccc3c(NC(=O)c4cccc5c(N)ncnc45)c(C)ccc23)c(F)c1` [Compound 88, 4-amino-N-(1-((2-fluoro-4-methylphenyl)amino)-6-methylisoquinolin-5-yl)quinazoline-8-carboxamide], the IC50 in experiment [3] was determined as 70.2 ± 9.8 nM; in experiment [1] it was 55.4 ± 8 nM.
